| melting point [°C] | Compound |
| --- | --- |
| 140 | Cc1ccccc1C1=CCN(CC[C@H]2CC[C@H](NC(=O)CCCC#N)CC2)CC1 |
| 130 | CSc1ccccc1N1CCN(CC[C@H]2CC[C@H](NC(=O)CCCC#N)CC2)CC1 [Example 236, 4-Cyano-N-(4-{2-[4-(2-methylsulfanylphenyl)piperazin-1-yl]ethyl}cyclohexyl)butanamide] |
| 119 | N#CCCCC(=O)NC1CCC(CCN2CCN(c3cccc(-c4ccccc4)c3)CC2)CC1 (stereo not shown) [Example 462, N-{4-[2-(4-Biphenyl-3-ylpiperazin-1-yl)ethyl]cyclohexyl}-4-cyanobutanamide] |
| 246 | CCOc1cccc(N2CCN(CCC3CCN(CC(C)=O)CC3)CC2)c1.Cl.Cl |
| 193 | N#CCC(=O)N[C@H]1CC[C@H](CCN2CCN(c3cc(C(F)(F)F)c(Cl)cc3Cl)CC2)CC1 [Example 423, 2-Cyano-N-(4-{2-[4-(2,4-dichloro-5-trifluoromethylphenyl)piperazin-1-yl]ethyl}cyclohexyl)acetamide] |
| 141 | COCC(=O)N[C@H]1CC[C@H](CCN2CCC(c3cccc(C)c3C#N)CC2)CC1 [Example 55, N-(4-{2-[4-(2-Cyano-3-methylphenyl)piperidin-1-yl]ethyl}cyclohexyl)-2-methoxyacetamide] |
| 314 | Cl.Cl.N#Cc1cccc(N2CCN(CC[C@H]3CC[C@H](NC(=O)[C@@H]4CCCN4)CC3)CC2)c1 (stereo in doubt) |
| 165 | NC(=O)CC(=O)N[C@H]1CC[C@H](CCN2CCN(c3cc(C(F)(F)F)cc(C(F)(F)F)c3)CC2)CC1 [Example 738, N-(4-{2-[4-(3,5-Bistrifluoro-methylphenyl)piperazin-1-yl]ethyl}cyclohexyl)malonamide] |
| 153 | C[S+]([O-])CC(=O)N[C@H]1CC[C@H](CCN2CCN(c3cccc(C(F)(F)F)c3)CC2)CC1 (stereo partly shown) [Example 334, 2-Methanesulfinyl-N-(4-{2-[4-(3-trifluoromethylphenyl)piperazin-1-yl]ethyl}cyclohexyl)acetamide] |
| 220 | O=C(CC(F)(F)F)N[C@H]1CC[C@H](CCN2CCN(c3cccc(F)c3F)CC2)CC1 [Example 446, N-(4-{2-[4-(2,3-Difluorophenyl)piperazin-1-yl]ethyl}cyclohexyl)-3,3,3-trifluoropropanamide] |
| 228 | N#CCC(=O)N[C@H]1CC[C@H](CCN2CCN(c3ccc(C#N)cc3)CC2)CC1 [Example 370, 2-Cyano-N-(4-{2-[4-(4-cyanophenyl)piperazin-1-yl]ethyl}cyclohexyl)acetamide] |
| 114 | CC(=O)CN1CCC(CCN2CCN(c3cccc(Cl)c3)CC2)CC1 [Example 29, 1-(4-{2-[4-(3-Chlorophenyl)-piperazin-1-yl]ethyl}piperidin-1-yl)propan-2-one] |
| 215 | CC(C)OCC(=O)N[C@H]1CC[C@H](CCN2CCN(c3cccc(F)c3F)CC2)CC1.Cl |
| 260 | COc1ccc(C(F)(F)F)cc1N1CCN(CCC2CCN(CC(C)=O)CC2)CC1.Cl.Cl |
| 153 | Cc1ccc(C(F)(F)F)cc1N1CCN(CC[C@H]2CC[C@H](NC(=O)CCCC#N)CC2)CC1 [Example 388, 4-Cyano-N-(4-{2-[4-(2-methyl-5-trifluoromethylphenyl)piperazin-1-yl]ethyl}cyclohexyl)butyramide] |
| 140 | COCC(=O)N[C@H]1CC[C@H](CCN2CCN(c3cc(C#N)cc(C(F)(F)F)c3)CC2)CC1 [Example 139, N-(4-{2-[4-(3-Cyano-5-trifluoromethylphenyl)piperazin-1-yl]ethyl}cyclohexyl)-2-methoxyacetamide] |
| 128 | Cl.N#CCCC(=O)N1CCC(CCN2CCN(c3cc(Cl)cc(C(F)(F)F)c3)CC2)CC1 |
| 316 | CCc1ccccc1C1=CCN(CCC2CCN(CC(C)=O)CC2)CC1.Cl.Cl |
| 295 | CC(=O)CN1CCC(CCN2CCN(c3ccc(C#N)cc3)CC2)CC1.Cl.Cl |
| 203 | N#CCC(=O)N[C@H]1CC[C@H](CCN2CC=C(c3ccccc3)CC2)CC1 |
| 88 | CC(=O)CN1CCC(CCN2CCN(c3ccc(F)c(F)c3F)CC2)CC1 [Example 656] |
| 260 | CC(=O)CN1CCC(CCN2CCN(c3cc(F)cc(F)c3)CC2)CC1.Cl.Cl |
| 150 | Cc1ccccc1N1CCN(CC[C@H]2CC[C@H](NC(=O)CC#N)CC2)CC1 [Example 220, 2-Cyano-N-{4-[2-(4-o-tolylpiperazin-1-yl)ethyl]cyclohexyl}acetamide] |
| 145 | COCCCC(=O)N[C@H]1CC[C@H](CCN2CC=C(c3cccc(C(F)(F)F)c3)CC2)CC1 |
| 257 | CC(=O)CN1CCC(CCN2CCN(c3cccc(C(C)(C)C)c3)CC2)CC1.Cl.Cl |
| 192 | N#CCCCC(=O)N[C@H]1CC[C@H](CCN2CCN(c3cccc(-c4ncco4)c3)CC2)CC1 [Example 526, 4-Cyano-N-(4-{2-[4-(3-oxazol-2-ylphenyl)piperazin-1-yl]ethyl}cyclohexyl)butanamide] |
| 180 | CCc1ccc(F)c(N2CCN(CC[C@H]3CC[C@H](NC(=O)CC#N)CC3)CC2)c1 [Example 673, 2-Cyano-N-(4-{2-[4-(5-ethyl-2-fluorophenyl)piperazin-1-yl]ethyl}cyclohexyl)acetamide] |
| 317 | CC(=O)CN1CCC(CCN2CCN(c3cccc(F)c3C)CC2)CC1.Cl.Cl |
| 150 | CCCNC(=O)C[C@H]1CC[C@H](CCN2CCN(c3ccccc3F)CC2)CC1 [Example 306, 2-(4-{2-[4-(2-Fluorophenyl)-piperazin-1-yl]ethyl}cyclohexyl)-N-propylacetamide] |

Further lines, the compound ahead of its results:

| Compound | melting point [°C] |
| --- | --- |
| O=C(C=C1CCC(CCN2CCN(c3ccccc3F)CC2)CC1)NCC(F)(F)F (stereo not shown) [Example 303, 2-(4-{2-[4-(2-Fluorophenyl)-piperazin-1-yl]ethyl}cyclo-hexylidene)-N-(2,2,2-trifluoroethyl)acetamide] | 125 |
| O=C(N[C@H]1CC[C@H](CCN2CCN(c3ccc(F)c(F)c3F)CC2)CC1)C1=CCCC1 [Example 543] | 213 |
| CC(=O)CN1CCC(CCN2CCN(c3cc(F)c(F)c(F)c3F)CC2)CC1.Cl.Cl | 235 |
| N#CCCCC(=O)N[C@H]1CC[C@H](CCN2CCN(c3cc(C#N)ccc3Cl)CC2)CC1 [Example 601, N-(4-{2-[4-(2-Chloro-5-cyanophenyl)piperazin-1-yl]ethyl}cyclohexyl)-4-cyanobutanamide] | 206 |
| N#CCC(=O)N[C@H]1CC[C@H](CCN2CCN(c3cccc(Cl)c3Cl)CC2)CC1 [Example 143, 2-Cyano-N-(4-{2-[4-(2,3-dichlorophenyl)piperazin-1-yl]ethyl}cyclohexyl)acetamide] | 188 |
| N#CCC(=O)N[C@H]1CC[C@H](CCN2CCN(c3ccc(F)cc3F)CC2)CC1 [Example 162, 2-Cyano-N-(4-{2-[4-(2,4-difluorophenyl)piperazin-1-yl]ethyl}cyclohexyl)acetamide] | 188 |
| CCN(CC)CCC(=O)N[C@H]1CC[C@H](CCN2CCN(c3cccc(F)c3)CC2)CC1 [Example 411, 3-Diethylamino-N-(4-{2-[4-(3-fluorophenyl)piperazin-1-yl]ethyl}cyclohexyl)propanamide] | 118 |
| N#CCC(=O)N[C@H]1CC[C@H](CCN2CCN(c3cc(C#N)cc(C(F)(F)F)c3)CC2)CC1 [Example 138, 2-Cyano-N-(4-{2-[4-(3-cyano-5-trifluoromethylphenyl)piperazin-1-yl]ethyl}cyclohexyl)acetamide] | 186 |
| CC(C)(C)c1cccc(N2CCN(CC[C@H]3CC[C@H](NC(=O)CC#N)CC3)CC2)c1 [Example 169, N-(4-{2-[4-(3-tert-Butylphenyl)piperazin-1-yl]ethyl}cyclohexyl)-2-cyanoacetamide] | 150 |
| O=C(CC(F)(F)F)N[C@H]1CC[C@H](CCN2CCN(c3ccc(F)cc3F)CC2)CC1 [Example 386, N-(4-{2-[4-(2,4-Difluorophenyl)piperazin-1-yl]ethyl}cyclohexyl)-3,3,3-trifluoropropanamide] | 184 |
| O=C(COc1ccc(F)cc1)N[C@H]1CC[C@H](CCN2CCN(c3ccc(F)cc3F)CC2)CC1 [Example 385, N-(4-{2-[4-(2,4-Difluorophenyl)piperazin-1-yl]ethyl}cyclohexyl)-2-(4-fluorophenoxy)acetamide] | 162 |
| N#CCC(=O)N[C@H]1CC[C@H](CCN2CCN(c3ccccc3C#N)CC2)CC1 [Example 376, 2-Cyano-N-(4-{2-[4-(2-cyanophenyl)piperazin-1-yl]ethyl}cyclohexyl)acetamide] | 190 |
| CCOCC(=O)N[C@H]1CC[C@H](CCN2CCN(c3cc(C#N)cc(C(F)(F)F)c3)CC2)CC1 [Example 140, N-(4-{2-[4-(3-Cyano-5-trifluoromethylphenyl)piperazin-1-yl]ethyl}cyclohexyl)-2-ethoxyacetamide] | 133 |
| N#CCCCC(=O)N[C@H]1CC[C@H](CCN2CCN(c3ccc(F)c(C(F)(F)F)c3)CC2)CC1 [Example 430, 4-Cyano-N-(4-{2-[4-(4-fluoro-3-trifluoromethylphenyl)piperazin-1-yl]ethyl}cyclohexyl)butanamide] | 149 |
| CCc1cccc(N2CCN(CC[C@H]3CC[C@@H](NC(=O)CC#N)CC3)CC2)c1 [Example 328, 2-Cyano-N-(4-{2-[4-(3-ethylphenyl)piperazin-1-yl]ethyl}cyclohexyl)acetamide] | 101 |
| CCc1ccccc1C1=CCN(CC[C@H]2CC[C@H](NC(=O)CC#N)CC2)CC1 | 158 |
| Cl.Cl.O=C(CN1CCC(CCN2CCN(c3cccc(C(F)(F)F)c3)CC2)CC1)c1ccc(F)c(F)c1 | 220 |
| N#CCCC(=O)N[C@H]1CC[C@H](CCN2CCN(c3ccc(F)cc3F)CC2)CC1 [Example 403, 3-Cyano-N-(4-{2-[4-(2,4-difluorophenyl)piperazin-1-yl]ethyl}cyclohexyl)propanamide] | 165 |
| CC(=O)CN1CCC(CCN2CCN(c3cc(C#N)cc(C(F)(F)F)c3)CC2)CC1.Cl.Cl | 280 |
| COCC(=O)N[C@H]1CC[C@H](CCN2CCN(c3cccc(F)c3F)CC2)CC1 [Example 91, N-(4-{2-[4-(2,3-Difluorophenyl)-piperazin-1-yl]ethyl}cyclohexyl)-2-methoxyacetamide] | 155 |
